In this assay the test system is C3H/He mice, Gardner lymphosarcoma 6C3HED ip, survival T/C. The assay is described as follows: NCI In Vivo Anticancer Drug Screen. Data for tumor model Lymphosarcoma Gardner 6C3HED (intraperitoneal) in C3H/He mice. Particulars: higher = longer survival. The protocol:
The antitumor activity of compounds was measured in mice bearing transplantable tumors. Survival or tumor size were measured and the results are expressed as the measurement made in the treated group (T) divided by the measurement made in the vehicle treated control group (C). The tumor model used in this assay is Lymphosarcoma Gardner 6C3HED (intraperitoneal) in C3H/He mice

Setting [1] is: endpoint: survival time, mean or median, dose: 125.0 micrograms/kg/injection, schedule: Q01DX010 (ip), vehicle: saline.
The mark [2] stands for this setting: endpoint: survival time, mean or median, dose: 250.0 micrograms/kg/injection, schedule: Q01DX010 (ip), vehicle: saline.
Where [3] appears, read: endpoint: survival time, mean or median, dose: 2.0 mg/kg/injection, schedule: Q01DX010 (ip), vehicle: saline.
Setting [4] is: endpoint: survival time, mean or median, dose: 2.5 mg/kg/injection, schedule: Q01DX010 (ip), vehicle: saline.
Where [5] appears, read: endpoint: survival time, mean or median, dose: 5.0 mg/kg/injection, schedule: Q01DX010 (ip), vehicle: saline.
Where [6] appears, read: endpoint: survival time, mean or median, dose: 10.0 mg/kg/injection, schedule: Q01DX010 (ip), vehicle: saline.
Where [7] appears, read: endpoint: survival time, mean or median, dose: 20.0 mg/kg/injection, schedule: Q01DX010 (ip), vehicle: saline.
Setting [8] is: endpoint: survival time, mean or median, dose: 62.5 mg/kg/injection, schedule: Q01DX010 (ip), vehicle: saline.
[9] abbreviates: endpoint: survival time, mean or median, dose: 125.0 mg/kg/injection, schedule: Q01DX010 (ip), vehicle: saline.
Setting [10] is: endpoint: survival time, mean or median, dose: 250.0 mg/kg/injection, schedule: Q01DX010 (ip), vehicle: saline.
The mark [11] stands for this setting: endpoint: survival time, mean or median, dose: 500.0 mg/kg/injection, schedule: Q01DX010 (ip), vehicle: saline.
Setting [12] is: endpoint: survival time, mean or median, dose: 25.0 mg/kg/injection, schedule: Q01DX010 (ip), vehicle: saline.
Setting [13] is: endpoint: survival time, mean or median, dose: 50.0 mg/kg/injection, schedule: Q01DX010 (ip), vehicle: saline.
Where [14] appears, read: endpoint: survival time, mean or median, dose: 100.0 mg/kg/injection, schedule: Q01DX010 (ip), vehicle: saline.
Where [15] appears, read: endpoint: survival time, mean or median, dose: 200.0 mg/kg/injection, schedule: Q01DX010 (ip), vehicle: saline.
The mark [16] stands for this setting: endpoint: survival time, mean or median, dose: 0.5 mg/kg/injection, schedule: Q01DX010 (ip), vehicle: saline.
Setting [17] is: endpoint: survival time, mean or median, dose: 1.0 mg/kg/injection, schedule: Q01DX010 (ip), vehicle: saline.
[18] abbreviates: endpoint: survival time, mean or median, dose: 16.0 mg/kg/injection, schedule: Q01DX010 (ip), vehicle: saline.
[19] abbreviates: endpoint: survival time, mean or median, dose: 32.0 mg/kg/injection, schedule: Q01DX010 (ip), vehicle: saline.
[20] abbreviates: endpoint: survival time, mean or median, dose: 1.25 mg/kg/injection, schedule: Q01DX010 (ip), vehicle: saline.
The mark [21] stands for this setting: endpoint: survival time, mean or median, dose: 40.0 mg/kg/injection, schedule: Q01DX010 (ip), vehicle: saline.

Values joined by “and” are separate entries in the source; they are usually repeats but may differ in a detail not shown here. Equal entries are not always repeated. Inconclusive results and toxic doses are left out.

With `O[C@H](CN1CC1)[C@@H](O)CN1CC1`, the T/C was 103 % of control under setting [1]; 114 % of control and 203 % of control under setting [2]; 169 % of control (endpoint: survival time, mean or median, dose: 500.0 micrograms/kg/injection, schedule: Q01DX010 (ip), vehicle: saline).
As to `N#Cc1cn(C2OC(CO)C(O)C2O)c2ncnc(N)c12` (configuration not stated), the T/C is, setting by setting: (endpoint: survival time, mean or median, dose: 31.0 micrograms/kg/injection, schedule: Q01DX010 (ip), vehicle: saline) 96 % of control; under setting [1], 96 % of control.
Turning to `C=CC(CN1CC1)OC(C)=O` (configuration not stated), the T/C was 107 % of control under setting [3] and 123 % of control (endpoint: survival time, mean or median, dose: 4.0 mg/kg/injection, schedule: Q01DX010 (ip), vehicle: saline).
On to `CC1CCOS(=O)O1` (configuration not stated), for which the T/C is, setting by setting: under setting [4], 93 % of control; under setting [5], 93 % of control; under setting [6], 92 % of control and 103 % of control; under setting [7], 89 % of control and 96 % of control.
With `Nc1ncccc1C(=O)O`, the T/C under setting [8] was 100 % of control, the T/C under setting [9] was 100 % of control, the T/C under setting [10] is 107 % of control and the T/C under setting [11] is 96 % of control.
On to `CCN(CCNc1ccc(C)c2sc3cc(Cl)ccc3c(=O)c12)CC(C)O` (configuration not stated), for which the T/C is 110 % of control (endpoint: survival time, mean or median, dose: 7.8 mg/kg/injection, schedule: Q01DX010 (ip), vehicle: saline); 100 % of control (endpoint: survival time, mean or median, dose: 15.6 mg/kg/injection, schedule: Q01DX010 (ip), vehicle: saline); 100 % of control (endpoint: survival time, mean or median, dose: 31.3 mg/kg/injection, schedule: Q01DX010 (ip), vehicle: saline); 88 % of control and 96 % of control under setting [8].
For `CSc1ncnc2nc[nH]c12`, the T/C reads like this: under setting [12], 100 % of control; under setting [13], 93 % of control and 100 % of control; under setting [14], 93 % of control and 100 % of control; under setting [15], 93 % of control and 103 % of control.
For the compound `Cc1cn(C2OC(CO)C(O)C2O)c(=O)[nH]c1=O` (configuration not stated), the T/C is, setting by setting: under setting [8], 100 % of control; under setting [9], 96 % of control and 100 % of control; under setting [10], 100 % of control; under setting [11], 103 % of control.
In the case of `Nc1nc(F)nc2c1ncn2C1OC(CO)C(O)C1O` (configuration not stated), the T/C is 87 % of control under setting [16], 87 % of control under setting [17] and 86 % of control under setting [2].
For `O=C(Nc1ccc(C2=NCCN2)cc1)c1cccc(C(=O)Nc2ccc(C3=NCCN3)cc2)c1`, the T/C runs as follows: (endpoint: survival time, mean or median, dose: 8.0 mg/kg/injection, schedule: Q01DX010 (ip), vehicle: saline) 95 % of control; under setting [18], 304 % of control; under setting [19], 304 % of control; (endpoint: survival time, mean or median, dose: 64.0 mg/kg/injection, schedule: Q01DX010 (ip), vehicle: saline) 304 % of control.
Turning to `CN(C)c1ccc(/C=C/c2ccnc3ccccc23)cc1`, the T/C under setting [18] is 90 % of control and the T/C under setting [19] was 93 % of control.
For `O=C(O)c1[nH]c(=O)[nH]c(=O)c1F`, the T/C reads like this: under setting [20], 111 % of control; under setting [4], 95 % of control and 107 % of control; under setting [5], 92 % of control and 103 % of control; under setting [6], 96 % of control.
For the compound `S=P(N1CC1)(N1CC1)N1CC1`, the T/C runs as follows: (endpoint: survival time, mean or median, dose: 0.75 mg/kg/injection, schedule: Q01DX010 (ip), vehicle: saline) 100 % of control; (endpoint: survival time, mean or median, dose: 1.5 mg/kg/injection, schedule: Q01DX010 (ip), vehicle: saline) 104 % of control and 105 % of control; (endpoint: survival time, mean or median, dose: 3.0 mg/kg/injection, schedule: Q01DX010 (ip), vehicle: saline) 100 % of control and 110 % of control; (endpoint: survival time, mean or median, dose: 6.0 mg/kg/injection, schedule: Q01DX010 (ip), vehicle: saline) 104 % of control and 115 % of control.
With `CCC(=O)O[C@H]1CC[C@H]2[C@@H]3CCC4=CC(=O)CC[C@]4(C)[C@H]3CC[C@]12C`, the T/C was 90 % of control (endpoint: survival time, mean or median, dose: 62.5 mg/kg/injection, schedule: Q01DX010 (sc), vehicle: steriod suspending solution); 90 % of control (endpoint: survival time, mean or median, dose: 125.0 mg/kg/injection, schedule: Q01DX010 (sc), vehicle: steriod suspending solution); 96 % of control (endpoint: survival time, mean or median, dose: 250.0 mg/kg/injection, schedule: Q01DX010 (sc), vehicle: steriod suspending solution); 100 % of control (endpoint: survival time, mean or median, dose: 500.0 mg/kg/injection, schedule: Q01DX010 (sc), vehicle: steriod suspending solution).
Take `CC(C)CC(NC(=O)C(O)C(N)Cc1ccccc1)C(=O)O` (configuration not stated): the T/C was 94 % of control (endpoint: median survival time, dose: 2.5 mg/kg/injection, schedule: Q01DX005 (oral), vehicle: saline); 95 % of control (endpoint: median survival time, dose: 5.0 mg/kg/injection, schedule: Q01DX005 (oral), vehicle: saline); 95 % of control (endpoint: median survival time, dose: 10.0 mg/kg/injection, schedule: Q01DX005 (oral), vehicle: saline).
`C[C@]12C=CC(=O)C=C1CC[C@@H]1[C@@H]2[C@@H](O)C[C@@]2(C)[C@H]1CC[C@]2(O)C(=O)CO`: the T/C is, setting by setting: (endpoint: survival time, mean or median, dose: 12.5 mg/kg/injection, schedule: Q01DX010 (sc), vehicle: steriod suspending solution) 95 % of control and 100 % of control; (endpoint: survival time, mean or median, dose: 25.0 mg/kg/injection, schedule: Q01DX010 (sc), vehicle: steriod suspending solution) 90 % of control and 110 % of control; (endpoint: survival time, mean or median, dose: 50.0 mg/kg/injection, schedule: Q01DX010 (sc), vehicle: steriod suspending solution) 95 % of control and 105 % of control; (endpoint: survival time, mean or median, dose: 100.0 mg/kg/injection, schedule: Q01DX010 (sc), vehicle: steriod suspending solution) 95 % of control and 110 % of control.
For `NC(=O)n1cccn1`, the T/C reads like this: under setting [12], 89 % of control; under setting [13], 96 % of control; under setting [14], 96 % of control; under setting [15], 100 % of control.
As to `O=c1[nH]cc(F)c(=O)[nH]1`, the T/C was 222 % of control (endpoint: median survival time, dose: 13.3 mg/kg/injection, schedule: Q01DX009 (ip), vehicle: saline); 222 % of control (endpoint: median survival time, dose: 20.0 mg/kg/injection, schedule: Q01DX009 (ip), vehicle: saline); 203 % of control (endpoint: median survival time, dose: 27.0 mg/kg/injection, schedule: Q01DX009 (ip), vehicle: saline); 110 % of control under setting [5]; 283 % of control under setting [7]; 203 % of control under setting [21].
For `N#[N+]c1cnc([O-])[nH]c1=O`, the T/C runs as follows: under setting [20], 123 % of control; under setting [4], 150 % of control; under setting [5], 106 % of control.
On to `CCCSc1ncnc2nc[nH]c12`, for which the T/C is, setting by setting: under setting [9], 95 % of control; under setting [10], 95 % of control.
Turning to `COc1cc2c(c(OC)c1OC)-c1ccc(OC)c(=O)cc1[C@@H](NC(C)=O)CC2`, the T/C reads like this: (endpoint: survival time, mean or median, dose: 0.01 mg/kg/injection, schedule: Q01DX010 (ip), vehicle: saline) 100 % of control; (endpoint: survival time, mean or median, dose: 0.02 mg/kg/injection, schedule: Q01DX010 (ip), vehicle: saline) 103 % of control; (endpoint: survival time, mean or median, dose: 0.04 mg/kg/injection, schedule: Q01DX010 (ip), vehicle: saline) 100 % of control; (endpoint: survival time, mean or median, dose: 0.08 mg/kg/injection, schedule: Q01DX010 (ip), vehicle: saline) 121 % of control.
Turning to `CN(Cc1cnc2nc(N)nc(N)c2n1)c1c(Cl)cc(C(=O)NC(CCC(=O)O)C(=O)O)cc1Cl` (configuration not stated), the T/C by setting is: under setting [6], 300 % of control; under setting [7], 300 % of control; under setting [21], 300 % of control; (endpoint: survival time, mean or median, dose: 80.0 mg/kg/injection, schedule: Q01DX010 (ip), vehicle: saline) 300 % of control.
For `O=CN(O)CC(=O)O`, the T/C by setting is: under setting [8], 96 % of control; under setting [9], 89 % of control; under setting [10], 107 % of control; under setting [11], 100 % of control.
Consider `COc1cccc2c1C(=O)c1c(O)c3c(c(O)c1C2=O)C[C@@](O)(C(C)=O)C[C@@H]3OC1CC(N)C(O)C(C)O1` (some centres not stated), for which the T/C (endpoint: survival time, mean or median, dose: 0.13 mg/kg/injection, schedule: Q01DX010 (ip), vehicle: saline) is 92 % of control; the T/C (endpoint: survival time, mean or median, dose: 0.25 mg/kg/injection, schedule: Q01DX010 (ip), vehicle: saline) was 111 % of control; the T/C under setting [16] was 119 % of control; the T/C under setting [17] is 300 % of control; the T/C under setting [3] is 173 % of control.

The record behind these values is PubChem BioAssay AID230 (DTP/NCI, 2004).
